Tests used:
[1] = tested on: 16S control construct (16Sc); assay: ESI-FTICR MS screening for noncovalent binding to the 16Sc control RNA construct; design: species or system E. coli
Description: (§1) Samples were brought to 0.1% heptafluorobutyric acid (HFBA) by the addition of 1% HFBA. A Gilson HPLC system consisting of four 306 pumps and a Gilson 215 liquid handler was used to perform the separations. Sample injection volume was 3 mL. Separation was carried out using a 250×10 mm Phenomenex Aqua C18 column, with a 50×10 mm guard column. Components were eluted using 0.1% HFBA and a gradient of 0 to 40% Acetonitrile (ACN) at a flow rate of 3 mL/min. over 45 minutes. 1 mL fractions were collected every 20 seconds and were assayed without further preparation.
RNA constructs 16S and 16Sc (FIG. 1A) were obtained from Dharmacon Research, Boulder, Colo. The 16Sc construct contains an 18-atom hexaethylene glycol chain attached to the 5′ terminus of the oligonucleotide as supplied by the manufacturer. The addition of this chain results in a net addition of C12H24O9 P (monoisotopic mass calc 344.1236) to the 16Sc oligonucleotide sequence shown in FIG. 1. The RNA was deprotected according to the manufacturer's directions and ethanol precipitated twice from 1 M ammonium acetate. […]
The presence of both a specific (16S) and non-specific (16Sc) RNA construct enables the simultaneous determination of binding specificity between target and ligand. In the absence of ligand, the initial peak intensity ratio of 16Sc/16S was determined to be 0.3 as shown in the control spectrum shown in FIG. 1B. […]

[2] = tested on: E. coli 16S ribosomal A-site (16S) 27-mer synthetic RNA construct; assay: ESI-FTICR MS screening for noncovalent binding to the 16S RNA construct
Description: as §1
RNA constructs 16S and 16Sc (FIG. 1A) were obtained from Dharmacon Research, Boulder, Colo. The 16Sc construct contains an 18-atom hexaethylene glycol chain attached to the 5′ terminus of the oligonucleotide as supplied by the manufacturer. The addition of this chain results in a net addition of C12H24O9 P (monoisotopic mass calc 344.1236) to the 16Sc oligonucleotide sequence shown in FIG. 1. The RNA was deprotected according to the manufacturer's directions and ethanol precipitated twice from 1 M ammonium acetate. Paromomycin (MW=615.2963 Da), was obtained from Sigma (St. Louis, Mo.) and ICN (Costa Mesa, Calif.).
The construct shown on the left in FIG. 1A (16S) is the 27-mer synthetic RNA containing the E. coli 16S ribosomal A-site (Purohit, P.; Stern, S. Nature 1994, 370, 659-662). Two positions in the E. coli 16S RNA are noted numerically as 1408 and 1492, referring to the location of these residues in the intact 16S rRNA. These positions have been previously shown to be critical for aminoglycoside recognition and binding (Griffey, R. H.; Hofstadler, S. A.; Sannes-Lowery, K. A.; Ecker, D. J.; Crooke, S. T. Proc. Natl. Acad. Sci. U. S. A. 1999, 96, 10129-10133; Fourmy, D.; Recht, M. I.; Blanchard, S. C.; Puglisi, J. D. Science (Washington, D.C.) 1996, 274, 1367-1371).
Mass spectrometry was performed on a modified Bruker Daltonics (Billerica, Mass.) Apex II 70e electrospray ionization Fourier transform ion cyclotron resonance mass spectrometer equipped with an actively shielded 7 tesla superconducting magnet. Experiments were performed with the source at room temperature, the skimmer potential was held at 0 volts, the capillary exit potential was −126 volts, and other experimental parameters were as described in detail elsewhere (Sannes-Lowery, K. A.; Drader, J. J.; Griffey, R. H.; Hofstadler, S. A. TrAC, Trends Anal. Chem. 2000, 19, 481-491). Binding reactions were comprised of 15 μl of a solution containing 2.5 μM 16S and 16Sc in 100 mM NH4OAc and 33% isopropyl alcohol and 2 μl of the LC fraction in a 96-well microtiter plate. […] The plates were vortexed briefly, and then incubated for 60 minutes at room temperature prior to analysis. Sample aliquots were injected directly from 96-well microtiter plates using a CTC HTS PAL autosampler (LEAP Technologies, Carrboro, N.C.).
The presence of both a specific (16S) and non-specific (16Sc) RNA construct enables the simultaneous determination of binding specificity between target and ligand. In the absence of ligand, the initial peak intensity ratio of 16Sc/16S was determined to be 0.3 as shown in the control spectrum shown in FIG. 1B. The peak intensity ration of 16Sc/16S should remain constant in the absence of ligand binding activity. If a ligand specifically binds the 16S RNA target, the peak intensity ratio of 16Sc/16S will […], while a ligand that binds non-specifically to both targets will not cause a significant change in the peak intensity ratio of 16Sc/16S. Thus, monitoring the 16Sc/16S peak intensity ratio is a convenient metric for characterizing binding specificity.

For `NC[C@@H]1O[C@H](O[C@H]2[C@@H](O)[C@H](O[C@@H]3[C@@H](O)[C@H](N)C[C@H](N)[C@H]3O[C@H]3O[C@H](CO)[C@@H](O)[C@H](O)[C@H]3N)O[C@@H]2CO)[C@H](N)[C@@H](O)[C@@H]1O` [paromomycin, Paromomycin], the “abundance of the non-specific complex of 16Sc+paromomycin (relative to 16Sc)” value ([1]; fraction 146 (~54.7 minutes), FIG. 4) was 13%, the “binding to the 16Sc RNA (result in words)” value ([1]; fraction #131, peak would be expected at m/z 1982.11) was “does not indicate a peak corresponding to paromomycin binding to the 16Sc RNA” and the “binding specificity 16S vs 16Sc (result in words)” value ([2]; 2.5 μM 16S and 16Sc, 100 mM NH4OAc, 33% isopropyl alcohol) was “binding specifically to 16S RNA”. The “specificity for the 16S RNA target relative to the new molecule (59-fold vs. 5-fold)” value ([2]; fraction 146) was “approximately 11 fold”, the “abundance of the specific complex of 16S+paromomycin compared to 16S” value ([2]; fraction 146 (~54.7 minutes) of S. rimosus sp. paromomycinus broth, 5- charge state, FIG. 4) was 770% and the “specificity of binding to the 16S RNA target over the 16Sc RNA construct” value ([2]; fraction 146, ratio of complex abundances 16S vs 16Sc) was “approximately 59 fold”. For the same molecule, the “peak intensity ratio of 16Sc/16S RNA” value ([2]; fraction #131 (~49.5 minutes), baseline ratio without ligand 0.3) was 0.79 and the “number of paromomycin molecules binding to 16S and 16Sc RNA” value ([2]; peak of the paromomycin elution (e.g. fraction 138), data not shown) was “one to four”.
